Measured values as given in US6777418B2, “Retinoid compounds (I)” (Syntex (U.S.A.) LLC, priority 2000, dated 2004).
“And” between values parts separate entries of the source, which are not always exact repeats. Equal entries are not always repeated.

| Compound | melting point |
| --- | --- |
| CC1(C)CCC(C)(C)c2cc(-c3ccsc3)c(/C=C/c3ccc(C(=O)O)cc3)cc21 | 244.5 to 245.8 °C |
| CC1(C)CCC(C)(C)c2cc(-c3cccs3)c(/C=C/c3ccc(C(=O)O)cc3)cc21 | 242.5 to 243.6 °C |
| CC1(C)c2cc(/C=C/c3ccc(C(=O)O)cc3)c(Cn3cccn3)cc2C(C)(C)[C@@H](O)[C@H]1O (stereo in doubt) [Compound 148, 4-[(E)-2-(5,5,8,8-tetramethyl-3-pyrazol-1-ylmethyl-6,7-cis-dihydroxy-5,6,7,8-tetrahydro-naphthalen-2-yl)vinyl]-benzoic acid] | 238.3 to 241.5 °C and 238.5 to 241.5 °C |
| CC1(C)CCC(C)(C)c2cc(CSC3CCCC3)c(/C=C/c3ccc(C(=O)O)cc3)cc21 [Compound 4] | 209.4 to 211.3 °C |
| COCCOCc1cc2c(cc1/C=C/c1ccc(C(=O)O)cc1)C(C)(C)CCC2(C)C [Compound 5] | 55.9 to 58.2 °C |
| CC1(C)CCC(C)(C)c2cc(CSCC(O)CO)c(/C=C/c3ccc(C(=O)O)cc3)cc21 (centres unmarked) [Compound 9] | 174.8 to 175.9 °C |
| CCOCCCc1cc2c(cc1/C=C/c1ccc(C(=O)O)cc1)C(C)(C)CCC2(C)C [Compound 10, 4-{(E)-2-[3-(3-ethoxypropyl)-5,8,8-tetramethyl-5,6,7,8-tetrahydro-naphthalen-2-yl]vinyl}benzoic acid] | 169.4 to 173.3 °C |
| CC1(C)CCC(C)(C)c2cc(CCCO)c(/C=C/c3ccc(C(=O)O)cc3)cc21 [Compound 12, 4-{(E)-2-[3-(3-hydroxypropyl)-5,5,8,8-tetramethyl-5,6,7,8-tetrahydro-naphthalen-2-yl]vinyl}benzoic acid] | 212.8 to 213.2 °C |
| CC(C)SCc1cc2c(cc1/C=C/c1ccc(C(=O)O)cc1)C(C)(C)CCC2(C)C [Compound 13] | 208.6 to 210.8 °C |
| Cn1cnnc1SCc1cc2c(cc1/C=C/c1ccc(C(=O)O)cc1)C(C)(C)CCC2(C)C [Compound 22] | 251.6 to 252.6 °C |
| Cc1nnc(SCc2cc3c(cc2/C=C/c2ccc(C(=O)O)cc2)C(C)(C)CCC3(C)C)s1 [Compound 23] | 218.1 to 218.5 °C |
| Cc1nnc(SCCc2cc3c(cc2/C=C/c2ccc(C(=O)O)cc2)C(C)(C)CCC3(C)C)s1 [Compound 27, 4-((E)-2-{5,5,8,8-tetramethyl-3-[3-(5-methyl-[1,3,4]thiadizol-2ylsulfanyl)-ethyl]-5,6,7,8-tetrahydro-naphthalen-2-yl}vinyl)benzoic acid] | 244.7 to 245.2 °C |
| Cc1nnc(SCCCc2cc3c(cc2/C=C/c2ccc(C(=O)O)cc2)C(C)(C)CCC3(C)C)s1 [Compound 28, 4-((E)-2-{5,5,8,8-Tetramethyl-3-[3-(5-methyl-[1,3,4]thiadiazol-2-ylsulfanyl)-propyl]-5,6,7,8-tetrahydro-naphthalen-2-yl}vinyl)benzoic acid] | 144 to 145.3 °C |
| CC1(C)CCC(C)(C)c2cc(CCn3cccn3)c(/C=C/c3ccc(C(=O)O)cc3)cc21 [Compound 29, 4-{(E)-2-[5,5,8,8-tetramethyl-3-(2-pyrazol-1-ylethyl)-5,6,7,8-tetrahydro-naphthalen-2-yl]vinyl}benzoic acid] | 235.3 to 235.9 °C |
| CC1(C)CCC(C)(C)c2cc(CCCn3cccn3)c(/C=C/c3ccc(C(=O)O)cc3)cc21 [Compound 30, 4-{(E)-2-[5,5,8,8-tetramethyl-3-(3-pyrazol-1-ylpropyl)-5,6,7,8-tetrahydro-naphthalen-2-yl]vinyl}benzoic acid] | 181.5 to 182.5 °C |
| CC1(C)CCC(C)(C)c2cc(CCc3nccs3)c(/C=C/c3ccc(C(=O)O)cc3)cc21 [Compound 40, 4-{(E)-2-[5,5,8,8-tetramethyl-3-(2-thiazol-2-yl-ethyl)-5,6,7,8-tetrahydro-naphthalen-2-yl)vinyl]benzoic acid] | 215.8 to 217.5 °C |
| CC1(C)CCC(C)(C)c2cc(CCc3ncccn3)c(/C=C/c3ccc(C(=O)O)cc3)cc21 [Compound 41] | 228 to 228.9 °C |
